Assay [1] deals with T1, TrkB (WT) dimerization (Rattus norvegicus, UniProt Q63604).
T1 construct: expressed in transfected cells; host or cells: N2a
The experiment in a line: Split-luciferase PCA of TrkB dimerization in N2a cells. The format is cell-based. The method in brief:
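N2a cells transiently co-transfected with split hGLuc-tagged rat TrkB pairs (WT/WT or Y433F/WT) for dimerization; Ketanserin, M100907 or TRKB.FC added 10 min before treatment. Luminescence read after injection of native coelenterazine ([…] final).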

The test system of assay [2] is mice. As to the kind of experiment: Head-twitch response. The following applies: for Head-twitch response, Mean: ext fig 7d. Details: key to Mean, figure 7c (head-twitch response) / Mean Diff., figure 7d, Vehicle:Saline vs. Vehicle:LSD / Mean Diff., figure 7d, Vehicle:Saline vs. M100907:Saline / Mean Diff., figure 7d, M100907:Saline vs. M100907:LSD / Mean, figure 7d (head-twitch response) / Mean Diff., figure 7c, WT:Saline vs. WT:LSD / Head-twitch response, Mean: head twitch counts (scored every 2 min over 30 min). Type of assay: in vivo, mouse. Here is the method:
Immediately after the last injection, the animals were placed inside a transparent chamber and their activity video-recorded for 30 min. Similarly to previous studies, head twitches were scored as counts every 2 min by observers blinded to treatments and genotypes.

Assay [3] has as its system pERK. The experiment in a line: Western blot of ERK phosphorylation in cortical neurons. The format is cell-based, rat. The method, then:
In a separate set of experiments to examine the effect of 5-HT2A activation, M100907 (100 nM) was administered as a 10 min pretreatment and remained in the medium for the rest of the experiment. Next, cells were lysed and centrifuged. […] The co-immunoprecipitation was carried out as previously described[11],[23],[24] with minor modifications. Briefly, Magnetic Dynabeads Protein G (Invitrogen, 10004D) were coated with anti-TrkB antibody (R&D Systems, AF1494) at 200 ng of antibody per 1 µl of beads in rotation (2 h, 4 °C). Finally, lysates were mixed with the coated beads (100 µg of total protein per 15 µl of beads) and incubated in rotation (overnight, 4 °C).
Proteins were separated according to their molecular weight by SDS–PAGE and transferred to a polyvinylidene fluoride membrane. Membranes were incubated with the following primary antibodies (all 1:1,000 in 3% BSA in TBS-T, overnight, 4 °C): anti-TrkB (R&D Systems, AF1494), anti-β-actin (Sigma-Aldrich, A1978), anti-phospho-mTOR (Cell Signaling Technology, 5536S), anti-phospho-p44/42 MAPK (Erk1/2) (Cell Signaling Technology, 9106S), anti-mTOR (Cell Signaling Technology, 2972S) and anti-p44/42 MAPK (Erk1/2) (Cell Signaling Technology, 9102S). […] Protein bands were visualized using enhanced chemiluminescent substrate (Thermo Scientific, 32132, ECL Plus) and imaged with a charge-coupled device camera (G:BOX, Syngene).

T1 sequence (Q63604 32-821): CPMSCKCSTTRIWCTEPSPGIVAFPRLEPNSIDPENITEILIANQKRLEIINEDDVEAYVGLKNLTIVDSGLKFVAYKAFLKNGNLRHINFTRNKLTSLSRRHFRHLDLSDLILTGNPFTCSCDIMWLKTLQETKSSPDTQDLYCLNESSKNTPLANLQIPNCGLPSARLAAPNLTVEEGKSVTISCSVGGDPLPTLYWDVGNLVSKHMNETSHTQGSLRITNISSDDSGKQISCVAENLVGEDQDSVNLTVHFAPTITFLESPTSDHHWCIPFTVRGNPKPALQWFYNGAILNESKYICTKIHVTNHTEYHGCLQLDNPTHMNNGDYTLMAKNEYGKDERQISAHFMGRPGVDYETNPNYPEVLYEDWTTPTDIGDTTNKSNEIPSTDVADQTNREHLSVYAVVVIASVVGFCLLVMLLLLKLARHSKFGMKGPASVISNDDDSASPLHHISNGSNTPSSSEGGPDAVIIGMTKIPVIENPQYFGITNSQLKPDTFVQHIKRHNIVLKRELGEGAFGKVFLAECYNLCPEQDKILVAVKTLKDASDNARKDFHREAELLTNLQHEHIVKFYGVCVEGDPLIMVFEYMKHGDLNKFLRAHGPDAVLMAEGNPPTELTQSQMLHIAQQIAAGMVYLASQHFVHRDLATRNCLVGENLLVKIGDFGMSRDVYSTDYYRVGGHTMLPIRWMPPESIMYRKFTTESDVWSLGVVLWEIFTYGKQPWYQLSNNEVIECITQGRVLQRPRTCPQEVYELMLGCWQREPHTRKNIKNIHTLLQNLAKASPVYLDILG
T1 sequence (Q63604 32-821): as above

`COc1cccc([C@H](O)C2CCN(CCc3ccc(F)cc3)CC2)c1OC` [M100907]: the “Group mean (Mean 2; Vehicle:vehicle = 100), fig 4d” value in assay [1] (M100907 alone (M100907:vehicle), n=20) was found to be 100. In addition, the “effect of pretreatment on LSD- and BDNF-induced TrkB dimerization” value in assay [1] (ketanserin 100 nM, M100907 100 nM or TrkB.FC 200 ng ml^−1, 10 min before) is “fails to prevent the effects of LSD and BDNF on TrkB dimerization”. Also, the “effect on LSD-induced head-twitch response” value in assay [2] (M100907 0.5 mg kg^−1, 30 min before LSD) is on record as “blocked”. For the same molecule, the “Mean, figure 7d (head-twitch response)” value in assay [2] (M100907:Saline group) worked out at 0.2. Besides, the “Head-twitch response, Mean” value was 0.2 in assay [2] (Time (min) 2); 0 in assay [2] (Time (min) 4); 0 in assay [2] (Time (min) 6); 0 in assay [2] (Time (min) 8); 0 in assay [2] (Time (min) 10); 0 in assay [2] (Time (min) 12). The “Head-twitch response, Mean” value in assay [2] (Time (min) 14), in assay [2] (Time (min) 16), in assay [2] (Time (min) 18), in assay [2] (Time (min) 20), in assay [2] (Time (min) 22) and in assay [2] (Time (min) 24) was 0 in each case. Moreover, the “Head-twitch response, Mean” value in assay [2] (Time (min) 26), in assay [2] (Time (min) 28) and in assay [2] (Time (min) 30) was 0 each time. Moreover, the “Mean Diff., figure 7d, Vehicle:Saline vs. M100907:Saline” value in assay [2] (vehicle minus M100907, Bonferroni's multiple comparisons test) is given as 2.2. The “effect of pretreatment on LSD-induced increase in pERK” value in assay [3] (M100907 100 nM) is “does not prevent LSD-induced increase in pERK”. Further, the “pERK, group mean (5e)” value in assay [3] (M100907:Vehicle (M100907 100 nM alone), vehicle 100) came to 108. Also, in assay [3] (over vehicle and LSD treatment, mean of vehicle row 184.0), the “pERK, row mean of M100907 (5e)” value was found to be 210.8.

The record behind these values is paper PMC10244169, “Psychedelics promote plasticity by directly binding to BDNF receptor TrkB” (Nature Neuroscience, 2023).
